This note sets out measurements from US20230355801A1, “IMMUNOTHERAPY OF SKIN CANCER USING MPLA-LOADED HPG NANOPARTICLES” (Yale University, priority 2022, published 2023).

In the test the test system is dendritic cells in tumor draining lymph nodes. Nature of the test: Maturation of dendritic cells in tumor draining lymph nodes of mice (Example 5). It counts as in vivo, mouse. The following applies: 24 hour after intratumoral injection, 10 μg MPLA. The method, then:
Immunocompetent mice were injected with Yale University Mouse Melanoma Exposed to Radiation 1.7 (YUMMER1.7) cells for in vivo modeling of immunogenic, cutaneous melanoma. 300,000 cells of YUMMER 1.7 melanoma cells in 50 μL of sterile PBS were intradermally injected into the left flank of syngeneic C57Bl/6 mice.
The mice were watched for tumor growth for eight days until the mice were randomly divided into groups (n=10) based on tumor sizes between 40-90 mm^3. The mice received vehicle (10 μl distilled water), free MPLA (10 μg), NNP-MPLA (10 μg of active MPLA), and BNP-MPLA (10 μg of active MPLA) intratumorally. The mice were sacrificed either at 24 hours or 72 hours after the single intratumoral injection. The tumor draining lymph nodes, both axillary and inguinal, were collected from each mouse. A petri dish was used to collect the lymph nodes, and the frosted ends of microscope slides were used to gently release immune cells from the lymph nodes into fresh CRPMI and placed on ice until resuspension. […]
After lymph node single cell collection, the cells were rinsed with sterile PBS and plated into a 96 round-bottom well plate at a concentration density of 1-2×10^6 cells per well then rinsed again with PBS. […] The stained cells were then detected by flow cytometer (Cytoflex, Beckman Coulter). […]

On to monophosphoryl lipid A [free MPLA], for which the “dendritic cell maturation (CD80+CD86+ in CD11c+ cells) in TDLN” value is recorded as “significant increase”.
